The assay addresses T1, GLP-1R (Homo sapiens, UniProt P43220).
T1 construct: host or cells: GLP-1R CRE-bla CHO-K1 cells
As to the kind of experiment: EC20 GLP-1(9-36) PAM cAMP assay: dose response of compound in the presence of fixed concentration of GLP-1(9-36). The format is cell-based. The conditions noted are these: GLP-1R CRE-bla CHO-K1 cells, compound dose response with fixed concentration of GLP-1(9-36), read-out: EC20 GLP-1(9-36) PAM EC50. The essentials: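 GLP-1R CRE-bla CHO-K1 cells treated 30 min at 37 °C with 12-point compound dose response plus fixed EC20 GLP-1(9-36), with IBMX, in HBSS/HEPES/0.1% BSA pH 7.4. Total cAMP measured by luminescent detection against standard curve; EC50 and Emax from non-linear regression.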
In general terms: Cyclic AMP is a second messenger, typically raised through Gs and lowered through Gi signalling.
T1 sequence (P43220 24-463): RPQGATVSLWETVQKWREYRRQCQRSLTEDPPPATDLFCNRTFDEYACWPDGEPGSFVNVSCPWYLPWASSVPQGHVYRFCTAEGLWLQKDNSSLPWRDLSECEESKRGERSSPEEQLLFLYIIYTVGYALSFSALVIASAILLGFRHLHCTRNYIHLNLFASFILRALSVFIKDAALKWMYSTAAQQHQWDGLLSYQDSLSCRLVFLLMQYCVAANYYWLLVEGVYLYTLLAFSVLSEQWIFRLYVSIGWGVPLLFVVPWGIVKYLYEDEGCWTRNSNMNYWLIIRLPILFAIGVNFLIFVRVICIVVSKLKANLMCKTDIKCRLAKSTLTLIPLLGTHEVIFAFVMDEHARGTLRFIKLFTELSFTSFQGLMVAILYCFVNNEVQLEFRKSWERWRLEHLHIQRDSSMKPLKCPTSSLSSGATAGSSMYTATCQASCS
T1 sequence (P01275 100-127 partner limits assumed): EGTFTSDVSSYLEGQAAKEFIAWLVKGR
As to `CCCCc1ccc(C2CN(c3cnc(-c4ccc(C[C@H](NC(=O)c5ccc(C(C)(C)C)s5)C(=O)N5CC(C(=O)O)C5)cc4)nc3)C2)cc1` [Compound 1503], the EC50 (commonly the midpoint of the concentration-response curve) was 0.8 to 2.5 µM.
The figure for `CCCc1ccc(C2CCN(c3cnc(-c4ccc(C[C@H](NC(=O)c5ccc(C(C)(C)C)s5)C(=O)N5CC(C(=O)O)C5)cc4)nc3)C2)cc1` (some centres unmarked) [Compound 1504] is 0.8 to 2.5 µM; for `CCCCc1ccc(C2CCN(c3cnc(-c4ccc(C[C@H](NC(=O)c5ccc(C(C)(C)C)s5)C(=O)N5CC(C(=O)O)C5)cc4)nc3)C2)cc1` (some centres unmarked) [Compound 1505] it is 0.8 to 2.5 µM.
`CCCCC1CCN(C2CCN(c3cnc(-c4ccc(C[C@H](NC(=O)c5ccc(C(C)(C)C)s5)C(=O)N5CC(C(=O)O)C5)cc4)nc3)CC2)C(=O)C1` (some centres unmarked) [Compound 1506]: the EC50 fell in the range of 5 to 10 µM.
Turning to `CCCc1ccc(C2CCCN(c3cnc(-c4ccc(C[C@H](NC(=O)c5ccc(C(C)(C)C)s5)C(=O)N5CC(C(=O)O)C5)cc4)nc3)CC2)cc1` (some centres unmarked) [Compound 1507], the EC50 is 0.8 to 2.5 µM.
In the case of `CCCCc1ccc(C2CCCN(c3cnc(-c4ccc(C[C@H](NC(=O)c5ccc(C(C)(C)C)s5)C(=O)N5CC(C(=O)O)C5)cc4)nc3)CC2)cc1` (some centres unmarked) [Compound 1508], the EC50 is < 0.8 µM.
For `CCCc1ccc(CC2CN(c3cnc(-c4ccc(CC(NC(=O)c5ccc(C(C)(C)C)s5)C(=O)N5CC(C(=O)O)C5)cc4)nc3)C2)cc1` (centres unmarked) [Compound 1509], the EC50 lay in the range of 5 to 10 µM.
In the case of `CCCCc1ccc(CC2CN(c3cnc(-c4ccc(CC(NC(=O)c5ccc(C(C)(C)C)s5)C(=O)N5CC(C(=O)O)C5)cc4)nc3)C2)cc1` (centres unmarked) [Compound 1510], the EC50 was in the range of 2.5 to 5 µM.
On to `CCCc1ccc(N2CCN(c3cnc(-c4ccc(C[C@H](NC(=O)c5ccc(C(C)(C)C)s5)C(=O)N5CC(C(=O)O)C5)cc4)nc3)CC2)cc1` [Compound 1511], for which the EC50 was < 0.8 µM.
Turning to `CCC[C@H]1CC[C@H](C2CC(=O)N(c3cnc(-c4ccc(C[C@H](NC(=O)c5ccc(C(C)(C)C)s5)C(=O)N5CC(C(=O)O)C5)cc4)nc3)C(=O)C2)CC1` [Compound 1512], the EC50 was < 0.8 µM.
For the compound `CCC[C@H]1CC[C@H](C2CCN(c3cnc(-c4ccc(C[C@H](NC(=O)c5ccc(C(C)(C)C#N)s5)C(=O)N5CC(C(=O)O)C5)cc4)nc3)CC2)CC1` [Compound 1513], the EC50 was < 0.8 µM.
The value for `CCC[C@H]1CC[C@H](C2CCN(c3cnc(-c4ccc(C[C@H](NC(=O)c5cnc(C(C)(C)C)nc5)C(=O)N5CC(C(=O)O)C5)cc4)nc3)CC2)CC1` [Compound 1514] was < 0.8 µM; that for `CCC[C@H]1CC[C@H](C2CCN(c3cnc(-c4ccc(C[C@H](NC(=O)c5ccc(C6CC6)s5)C(=O)N5CC(C(=O)O)C5)cc4)nc3)CC2)CC1` [Compound 1515] was < 0.8 µM; that for `CCC[C@H]1CC[C@H](C2CCN(c3cnc(-c4ccc(C[C@H](NC(=O)c5cnn(C(C)(C)C)c5)C(=O)N5CC(C(=O)O)C5)cc4)nc3)CC2)CC1` [Compound 1516] was < 0.8 µM.
`CN(C)c1ccc(C2CCN(c3cnc(-c4ccc(CC(NC(=O)c5ccc(C(C)(C)C)s5)C(=O)N5CC(C(=O)O)C5)cc4)nc3)CC2)cc1` (centres unmarked) [Compound 1517]: the EC50 was < 0.8 µM.
As to `CCC[C@H]1CC[C@H](C2CCN(c3cnc(-c4ccc(C[C@H](NC(=O)c5ccc(C(C)(C)CC)cc5)C(=O)N5CC(C(=O)O)C5)cc4)nc3)CC2)CC1` [Compound 1518], the EC50 is < 0.8 µM.
For `CCC[C@H]1CC[C@H](C2CCN(c3cnc(-c4ccc(C[C@H](NC(=O)c5ccc(C6(C)CC6)cc5)C(=O)N5CC(C(=O)O)C5)cc4)nc3)CC2)CC1` [Compound 1519], the EC50 was < 0.8 µM.
The figure for `CCC[C@H]1CC[C@H](C2CCN(c3cnc(-c4ccc(C[C@H](NC(=O)c5ccc(C6CC6)cc5)C(=O)N5CC(C(=O)O)C5)cc4)nc3)CC2)CC1` [Compound 1520] is < 0.8 µM; for `CCCc1ccc(C(=O)N[C@@H](Cc2ccc(-c3ncc(N4CCC([C@H]5CC[C@H](CCC)CC5)CC4)cn3)cc2)C(=O)N2CC(C(=O)O)C2)cc1` [Compound 1521] it is < 0.8 µM.
Turning to `CCC[C@H]1CC[C@H](C2CCN(c3cnc(-c4ccc(C[C@H](NC(=O)c5ccc(CC(C)C)s5)C(=O)N5CC(C(=O)O)C5)cc4)nc3)CC2)CC1` [Compound 1522], the EC50 was < 0.8 µM.
The figure for `CCC[C@H]1CC[C@H](C2CCN(c3cnc(-c4ccc(C[C@H](NC(=O)c5ccc(S(=O)(=O)C(C)C)cc5)C(=O)N5CC(C(=O)O)C5)cc4)nc3)CC2)CC1` [Compound 1523] is 0.8 to 2.5 µM; for `CCC[C@H]1CC[C@H](C2CCN(c3cnc(-c4ccc(C[C@H](NC(=O)c5ccc(OC(C)(C)C)cc5)C(=O)N5CC(C(=O)O)C5)cc4)nc3)CC2)CC1` [Compound 1524] it is < 0.8 µM; for `CCC[C@H]1CC[C@H](C2CCN(c3cnc(-c4ccc(C[C@H](NC(=O)c5cc6cc(OC)ccc6[nH]5)C(=O)N5CC(C(=O)O)C5)cc4)nc3)CC2)CC1` [Compound 1525] it is < 0.8 µM.
Turning to `CCC[C@H]1CC[C@H](C2CCN(c3cnc(-c4ccc(C[C@H](NC(=O)c5ccc(C(C)(C)C#N)cc5)C(=O)N5CC(C(=O)O)C5)cc4)nc3)CC2)CC1` [Compound 1526], the EC50 is < 0.8 µM.
`CCC[C@H]1CC[C@H](C2CCN(c3cnc(-c4ccc(C[C@H](NC(=O)[C@H]5CC[C@H](C(C)(C)C)CC5)C(=O)N5CC(C(=O)O)C5)cc4)nc3)CC2)CC1` [Compound 1527]: the EC50 lay within 0.8 to 2.5 µM.
Consider `CCC[C@H]1CC[C@H](C2CCN(c3cnc(-c4ccc(C[C@H](NC(=O)c5ccc(C)cc5)C(=O)N5CC(C(=O)O)C5)cc4)nc3)CC2)CC1` [Compound 1528], for which the EC50 is 0.8 to 2.5 µM.
As to `CCC[C@H]1CC[C@H](C2CCN(c3cnc(-c4ccc(C[C@H](NC(=O)c5ccc(CC)cc5)C(=O)N5CC(C(=O)O)C5)cc4)nc3)CC2)CC1` [Compound 1529], the EC50 is < 0.8 µM.
Consider `CCC[C@H]1CC[C@H](C2CCN(c3cnc(-c4ccc(C[C@H](NC(=O)c5ccc(C)s5)C(=O)N5CC(C(=O)O)C5)cc4)nc3)CC2)CC1` [Compound 1530], for which the EC50 lay within 0.8 to 2.5 µM.
The value for `CCC[C@H]1CC[C@H](C2CCN(c3cnc(-c4ccc(C[C@H](NC(=O)c5ccc(C(C)(C)C)nc5)C(=O)N5CC(C(=O)O)C5)cc4)nc3)CC2)CC1` [Compound 1531] was < 0.8 µM.
For the compound `CCC[C@H]1CC[C@H](C2CCN(c3cnc(-c4ccc(C[C@H](NC(=O)c5ccn(C(C)(C)C)c5)C(=O)N5CC(C(=O)O)C5)cc4)nc3)CC2)CC1` [Compound 1532], the EC50 was < 0.8 µM.
The value for `CCC[C@H]1CC[C@H](C2CCN(c3cnc(-c4ccc(C[C@H](NC(=O)c5ccc(CC)s5)C(=O)N5CC(C(=O)O)C5)cc4)nc3)CC2)CC1` [Compound 1533] was < 0.8 µM; that for `CCC[C@H]1CC[C@H](C2CCN(c3cnc(-c4ccc(C[C@H](NC(=O)c5ccc(C(C)C)s5)C(=O)N5CC(C(=O)O)C5)cc4)nc3)CC2)CC1` [Compound 1534] was < 0.8 µM.
Turning to `CCC[C@H]1CC[C@H](C2CCN(c3cnc(-c4ccc(C[C@H](NC(=O)c5ccc(OC(C)C)cc5)C(=O)N5CC(C(=O)O)C5)cc4)nc3)CC2)CC1` [Compound 1535], the EC50 was in the range of 0.8 to 2.5 µM.
Turning to `CCC[C@H]1CC[C@H](C2CCN(c3cnc(-c4ccc(C[C@H](NC(=O)c5ccc(C(C)C)cc5)C(=O)N5CC(C(=O)O)C5)cc4)nc3)CC2)CC1` [Compound 1536], the EC50 is < 0.8 µM.
Regarding `CCC[C@H]1CC[C@H](C2CCN(c3cnc(-c4ccc(C[C@H](NC(=O)c5cnc(C(C)(C)C)s5)C(=O)N5CC(C(=O)O)C5)cc4)nc3)CC2)CC1` [Compound 1537], the EC50 is < 0.8 µM.

Values taken from patent US10034886B2, “GLP-1 receptor modulators” (Celgene International II SÀRL, priority 2014, dated 2018).
